Measurements published in US6835846B2, “Aliphatic compounds, process for their preparation and their usage” (Maruha Corporation, priority 2000, dated 2004).

What was measured:
[1] = test system: endothelial cell-neutrophil interaction; test: Anti-inflammatory tests using pseudo-blood vessel model (neutrophil transmigration and adhesion); format: cell-based, bovine; conditions: for neutrophil transmigration and adhesion: 0.1 and 1 microM compound, 10 microM AHOP in lower compartment, FIG. 4
Procedure: Transwells were used, each consisting of an upper compartment separated from a lower compartment by a porous membrane. A single layer of bovine endothelial cells was cultured on the porous membrane at the bottom surface of the transwell upper compartment. A suspension of fluorescence-labeled neutrophils was added to the transwell upper compartment, and AHOP was suspended within the lower compartment to an end concentration of 0.1 to 10 microM. That is, a pseudo-blood vessel in vitro inflammation model was thus constructed in which the upper compartment and the lower compartment of the transwell were isolated from each other via the endothelial layer, and the upper compartment corresponded to the interior of a blood vessel, while the lower compartment corresponded to the site of inflammation outside the blood vessel. Measurements were made of the number of the neutrophils passing from the upper compartment into the lower compartment through the endothelial layer, and the number of the neutrophils adhering to the endothelial layer. […] That is, AHOP was considered to act as an inflammation-inducing substance.
That is, the compound of Example 2 or 3 was added in an amount of 0.01 to 1 microM to the upper compartment or lower compartment of the transwell, and 10 microM AHOP was placed in the lower compartment to induce inflammation. As a control, inflammation was induced in the same way as above but without addition of any compounds of the invention.
Measurements were made of the number of the neutrophils passing from the upper compartment into the lower compartment through the endothelial layer, and the number of the neutrophils adhering to the endothelial layer. A relative neutrophil count (%) was calculated from the following equation:
Relative neutrophil count (%)=[number of neutrophils (passing and adhering) in the experimental group]/[number of neutrophils (passing and adhering) in the control]×100

cancer cell strain F10 = conditions: F10 cells; AHOP concentration of 10^−8 to 10^−6 M; maximum; cited from earlier work
Edg receptor = Edg receptor response test (intracellular Ca^2+ increase by AHOP in HL60 cells); format: cell-based; conditions: for concentration at which the Ca^2+ concentration increase by AHOP was dose-dependently suppressed / increase in the intracellular Ca^2+ concentration by the addition of AHOP: HL60 cells; for concentration at which the Ca^2+ concentration increase by AHOP was dose-dependently suppressed: AHOP 1 μM, FIG. 1; for increase in the intracellular Ca^2+ concentration by the addition of AHOP: test substance 30 μM, then AHOP 1 μM
Text: HL 60 cells were obtained from a cell bank, and subcultured for about 50 passages over a half-year period in accordance with the method described in BBRC '98, 263, p. 253 using an RPMI-1640 culture medium (Gibco) containing 10% fetal bovine serum to prepare a premyeloblastoma cell strain HL60 expressing Edg receptors on the cell surface. Using the premyeloblastoma cell strain HL60 expressing Edg receptors on the cell surface, the cell response of test substances was investigated. An increase in the intracellular Ca^2+ concentration was measured as an indicator of cell response. It is reported that when the Edg receptor on the HL60 cell surface is bound to AHOP, it phosphorylates G protein to activate IP3 kinase, whereafter the intracellular Ca^2+ concentration increases (FEBS Letter '96, 379, p. 260, BBRC '98, 253, p. 253). Thus, the intracellular Ca^2+ concentration serves as an indicator of Edg receptor response.
A Ca^2+ chelating reagent, Fura-2AM, was taken into HL60 cells.
A cell suspension (1.2 ml) was charged into a quartz cell, which was then mounted on a fluorometer LS50B (Perkin Elmer, for cell measurement). An excitation wavelength was alternately switched between 340 nm (exciting Fura-2 having chelated Ca^2+) and 380 nm (exciting unreacted Fura-2) at intervals of 0.5 milli second, and fluorescence intensity at 510 nm was measured.
Each test substance was added at an end concentration of 30 μM by means of a microsyringe, and then fluorescence intensity was traced to investigate whether Ca^2+ would increase or not. It was also confirmed whether Ca^2+ would increase or not when AHOP (1 μM) was added after addition of the test substance. Through these tests, the AHOP antagonism of each substance was studied.
Suramin, already confirmed to have antagonistic action, was used as a comparison. The experimental procedure was the same as described above, except that AHOP (1 μM) was added after addition of the test substance at varying concentration. An increase in the Ca^2+ concentration was evaluated by an increased Ca^2+ concentration (%) as a value relative to the increased Ca^2+ concentration in a negative control group (no drug added).

[2] = test system: myocardial infarction due to reperfusion following ligation of the rabbit coronary artery; test: Ligation-associated myocardial infarction model; format: in vivo
Procedure: The compound of Example 2 was used as a test substance for investigating its effect on myocardial infarction due to reperfusion following ligation of the rabbit coronary artery. Male NZW rabbits (weighing 2.83 to 3.20 kg) were purchased from Kitayama Labes, Co. Ltd., and bred and raised under the conditions: room temperature 20-26° C., humidity 40-70%, and illumination time 12 hours/day (7-19:00). The animals were allowed food and water ad libitum, and quarantined and acclimatized for 2 weeks or more. Then, the animals in good health were used. The above rabbits were administered 10 mg/kg of the compound of Example 2 through the jugular vein under anesthesia, and then the compound of Example 2 was continuously infused in a dose of 6.9 micro g/kg/min. In a control group, physiological saline (hereinafter referred to as PS) was administered in the same manner as in the experimental group. Then, coronary artery was ligated for 30 minutes, whereafter the ligature was released for reperfusion, and the blood pressure in the carotid artery, the pulse rate and the number of arrhythmias were measured. The carotid arterial blood pressure and pulse rate were measured before administration, during continuous intravenous infusion, during the ligation period (15 minute later and 30 minutes later), and during reperfusion. The carotid arterial blood pressure was calculated as mean blood pressure. The number of arrhythmias was counted as the number of extrasystoles that appeared during the ligation period (for 30 minutes) or during reperfusion. After 3 hours of reperfusion, the heart was removed, and sliced into 6 pieces. The living tissues were stained with 2,3,5-triphenyltetrazolium […] (TTC), the area of the infarct due to ligation was measured, and the percent of the infarct with respect to the area of the left ventricle was calculated.

Edg receptors = test: Competition experiments using ^3H-AHOP on HL60 cells; format: binding; conditions: for competition with ^3H-AHOP: HL60 cells, ^3H-AHOP 1 nM, unlabeled compound 10 nM, 30 nM or 100 nM, 30 minutes at 4° C.; for inhibition of binding of ^3H-AHOP (to HL60 cells): compound 1 nM, 3 nM and 10 nM, FIG. 2
Procedure: The same premyeloblastoma cell strain HL60 expressing Edg receptors on the cell surface as used in Example 4 was used. The cells were harvested by centrifugation, then suspended in an F-12 culture medium (stored at 4° C., 10 ml), and carried into an RI laboratory. ^3H-AHOP (15 μCi/1 nM) at an end concentration of 1 nM, and an unlabeled compound (the compound of Example 2 or Example 3) at an end concentration of 10 nM, 30 nM or 100 nM were each added to 200 μl of the cell suspension (1×10^6 cells/ml F-12), and a binding test was conducted for 30 minutes at 4° C. (with occasional stirring). After centrifugation for 7 minutes at 12,000 rpm, the supernatant was rapidly (without damaging cell pellets) discarded with a micropipetter. The cell pellets were suspended in 1.5 ml of Ready Safe (Beckman), whereafter the suspension was transferred into a vial and measured for radioactivity by a liquid scintillation counter L2100 (Beckman).
The compounds of Example 2 and Example 3 were subjected to the same competition experiments as described above, except that they were added at concentrations of 1 nM, 3 nM and 10 nM.

[3] = test system: vascular smooth muscle cells; test: Action on vascular smooth muscle growth (BrdU assay); format: cell-based; conditions: rat vascular smooth muscle cells, sphingosylphosphorylcholine 10 μM, 24 hours, FIG. 3
Procedure: Thus, the actions of the compounds of Examples 2 and 3 on the growth of vascular smooth muscle cells were measured in the manner described below. Suramin confirmed to have Edg receptor antagonism was used as a positive control.
The rat carotid intima was rubbed by ballooning, and a tissue fragment was cultured by explant culture. Two weeks later, vascular smooth muscle cells harvested were cultured in a DMEM culture medium (Gibco) containing 10% fetal bovine serum. The cultures were subcultured several times for stabilization, whereafter the subcultures were seeded at a cell density of 5×10^3 cells/cm^2 for use in experiments.
Along with the growth factor sphingosylphosphorylcholine (10 μM), the compound of Example 2 or 3, or suramin was added to the cells, and 24 hours later, the cell density was measured by BrdU assay (Science '82, 218, p. 474, Cytometry '85, 6, p. 584).

[4] = rabbit acute myocardial infarction models
[5] = rabbit, 10 mg/kg jugular vein then 6.9 micro g/kg/min infusion
[6] = rabbit, 10 mg/kg then 6.9 micro g/kg/min, ligation 15 min
[7] = rabbit, 10 mg/kg then 6.9 micro g/kg/min, ligation 30 min
[8] = rabbit, 10 mg/kg then 6.9 micro g/kg/min, reperfusion 180 min
[9] = rabbit, baseline before administration

## CCCCCCCCCCCCCC=CC(O)C(N)COP(=O)(O)O (stereo not drawn) [AHOP, 2-amino-3-hydroxy-4-octadecene-1-phosphate, reference compound]
[1]; AHOP 10 microM in lower compartment
  transmigration through the endothelial layer and adhesion of the neutrophils (inflammation-inducing action): promoted significantly
Cancer cell strain F10
  suppression of migration: ~80%

## CCCCCCCCCCCCCC[C@H](O)C(=O)N[C@H](CO)[C@@H](O)/C=C/CC/C=C(\C)CCCCCCCCC [Example 2, (4E,8E,2R,3S,2′S)-N-2′-hydroxyhexadecanoyl-9-methyl-4.8-octadecadiene-1,3-diol]
Edg receptor; ED50 for intracellular Ca^2+ increase
  strength of the action in comparison with suramin (ED50): about 40 times
Edg receptor
  concentration at which the Ca^2+ concentration increase by AHOP was dose-dependently suppressed: 0.03 to 0.3 µM
  increase in the intracellular Ca^2+ concentration by the addition of AHOP: inhibited
[1]
  neutrophil transmigration and adhesion: suppressed
[2]; [4]
  ligation-associated decrease in pulse rate (in words): tended to inhibit
  number of arrhythmias due to ligation (in words): reduce the number of arrhythmias due to ligation
  percent area of the infarct (in words): tendency toward decreasing
[2]; [5]
  Mean blood pressure, continued i.v. infusion: 74 ± 9 mmHg
  Pulse rate, continued i.v. infusion: 283 ± 10 beats/min
[2]; [6]
  Mean blood pressure, ligation 15 min: 59 ± 10 mmHg
  Pulse rate, ligation 15 min: 270 ± 9 beats/min
[2]; [7]
  Mean blood pressure, ligation 30 min: 66 ± 8 mmHg
  Pulse rate, ligation 30 min: 282 ± 4 beats/min
[2]; [8]
  Mean blood pressure, reperfusion 180 min: 68 ± 4 mmHg
  Pulse rate, reperfusion 180 min: 256 ± 10 beats/min
[2]; rabbit, after 3 hours of reperfusion, TTC staining
  Infarct/left ventricle (percent area of the infarct): 14.0 ± 2.1%
[2]; [9]
  Mean blood pressure, before administration: 83 ± 4 mmHg
  Pulse rate, before administration: 301 ± 9 beats/min
[2]; rabbit, extrasystoles during reperfusion
  number of arrhythmias, reperfusion: 17 ± 6
[2]; rabbit, extrasystoles during the ligation period (30 minutes)
  number of arrhythmias, ligation: 12 ± 5
Edg receptors
  competition with ^3H-AHOP: competitive with ^3H-AHOP
  inhibition of binding of ^3H-AHOP (to HL60 cells): Dose-dependent inhibition
[3]
  concentrations at which vascular smooth muscle growth was inhibited: 0.3 to 3 µM

## CCCCCCCCCCCCCCC(O)C(=O)N[C@@H](CO)[C@H](O)/C=C/CCCC(C)CCCCCCCCC (stereo partly drawn) [Example 3, (4E,2S,3R,2′RS)-N-2′-hydroxyhexadecanoyl-9-methyl-4-octadecene-1,3-diol]
Edg receptor
  concentration at which the Ca^2+ concentration increase by AHOP was dose-dependently suppressed: 0.3 to 3 µM
  increase in the intracellular Ca^2+ concentration by the addition of AHOP: inhibited
[1]
  neutrophil transmigration and adhesion: suppressed
other
  melting point: 52 to 57 °C
Edg receptors
  competition with ^3H-AHOP: competitive with ^3H-AHOP
  inhibition of binding of ^3H-AHOP (to HL60 cells): Dose-dependent inhibition
[3]
  concentrations at which vascular smooth muscle growth was inhibited: 1 to 10 µM

## CCCCCCCCCCCCCC[C@H](O)C(=O)N[C@H](CO)[C@@H](O)/C=C/CC/C=C(\C)CCCCCCCCC [Example 1, (4E,8E,2R,3S,2′S)-N-2′-hydroxyhexadecanoyl-9-methyl-4,8-octadecadiene-1,3-diol]
other
  melting point: 62 to 63 °C
